{
  "source": "patent EP0923576B1",
  "about": "“4-AMINOETHOXY-INDOLONE DERIVATIVES AS DOPAMINE D2 AGONISTS” (Wyeth, priority 1996, dated 1998)",
  "key": {"[1]": {"molecular_target": "dopamine autoreceptor (Rattus norvegicus, UniProt P61169)", "sequence (P61169 whole entry)": "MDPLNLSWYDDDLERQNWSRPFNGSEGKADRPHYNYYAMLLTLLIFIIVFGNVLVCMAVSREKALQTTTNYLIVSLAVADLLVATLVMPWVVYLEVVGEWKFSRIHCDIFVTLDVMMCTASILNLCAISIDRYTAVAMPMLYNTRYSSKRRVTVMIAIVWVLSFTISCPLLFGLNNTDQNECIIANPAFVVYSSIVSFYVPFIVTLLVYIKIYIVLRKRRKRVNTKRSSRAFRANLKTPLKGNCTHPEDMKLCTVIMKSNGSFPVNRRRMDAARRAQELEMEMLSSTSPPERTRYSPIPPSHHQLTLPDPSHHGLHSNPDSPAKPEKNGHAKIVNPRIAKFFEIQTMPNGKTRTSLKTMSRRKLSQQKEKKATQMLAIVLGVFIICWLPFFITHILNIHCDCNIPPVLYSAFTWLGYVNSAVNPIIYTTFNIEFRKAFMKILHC", "assay": "3H-quinpirole binding, affinity for the dopamine autoreceptor in homogenized striatal brain tissue", "protocol": "Affinity for the dopamine autoreceptor was established by a modification of the standard experimental test procedure of Seemen and Schaus, European Journal of Pharmacology 203, 105-109 (1991), wherein homogenized rat striatal brain tissue is incubated with ^3H-quinpirole (Quin.)and various concentrations of test compound, filtered and washed and counted in a Betaplate scintillation counter."}, "[2]": {"molecular_target": "T1, dopamine D-2 receptor (Rattus norvegicus, UniProt P61169)", "T1 construct": "homogenized limbic brain tissue is incubated with ^3H-spiroperidol; from tissue", "T1 sequence (P61169 whole entry)": "as above", "assay": "3H-spiroperidol binding, affinity for the dopamine D-2 receptor in homogenized limbic brain tissue", "conditions": "for Ratio: ratio IC50 D2 Spiper / IC50 D2 Quin. (LowAg/HighAg), predicts intrinsic activity; for IC50: read-out: IC50 (nM) D2 Spiper"}},
  "data": [
    {"smiles": "CSC1C(=O)Nc2c(F)ccc(OCCNCc3ccsc3)c21", "note": "(stereo not drawn) [Example 1]", "values": [
      {"measurement": "IC50", "setting": "[1]", "result": 0.00149, "unit": "µM"},
      {"measurement": "Ratio", "setting": "[2]", "result": 91},
      {"measurement": "IC50", "setting": "[2]", "result": 135, "unit": "nM"}
    ]},
    {"smiles": "O=C1Cc2c(OCCNCc3cccs3)ccc(Cl)c2N1", "note": "[Example 2a, 4-[2-Thien-2-ylmethyl)aminoethoxyl-7-chloro-1,3-dihydro-indol-2-one]", "values": [
      {"measurement": "IC50", "setting": "[1]", "result": 0.0011, "unit": "µM"},
      {"measurement": "Ratio", "setting": "[2]", "result": 30.5},
      {"measurement": "IC50", "setting": "[2]", "result": 33.5, "unit": "nM"}
    ]},
    {"smiles": "O=C1Cc2c(OCCNCc3ccsc3)ccc(Cl)c2N1", "note": "[Example 2b, 4-[2-(Thien-3-ylmethyl)aminoethoxy]-7-chloro 1,3-dihydro-indol-2-one]", "values": [
      {"measurement": "IC50", "setting": "[1]", "result": 0.00071, "unit": "µM"},
      {"measurement": "Ratio", "setting": "[2]", "result": 37.7},
      {"measurement": "IC50", "setting": "[2]", "result": 26.7, "unit": "nM"}
    ]},
    {"smiles": "O=C1Cc2c(OCCNCc3ccsc3)ccc(F)c2N1", "note": "[Example 3a]", "values": [
      {"measurement": "IC50", "setting": "[1]", "result": 0.00253, "unit": "µM"},
      {"measurement": "Ratio", "setting": "[2]", "result": 128},
      {"measurement": "IC50", "setting": "[2]", "result": 323, "unit": "nM"}
    ]},
    {"smiles": "O=C1Cc2c(OCCNCc3cccs3)ccc(F)c2N1", "note": "[Example 3b, 4-[2-(Thien-2-ylmethyl)aminoethoxy]-7-fluoro-1,3-dihydro-indol-2-one]", "values": [
      {"measurement": "IC50", "setting": "[1]", "result": 0.00136, "unit": "µM"},
      {"measurement": "Ratio", "setting": "[2]", "result": 293},
      {"measurement": "IC50", "setting": "[2]", "result": 398, "unit": "nM"}
    ]}
  ]
}
